Laboratory results as given in patent US20040029808A1, “Peptides capable of functioning as mimotopes for hormonal analytes” (priority 2000, published 2004).
Ends that are not written are not given here.

What was measured:
[1] = tested on: MAb4155 (anti-estrone-3-glucuronide monoclonal antibody); assay: ELISA testing of peptides on pins: binding of MAb4155 to peptides; design: species or system mouse
Procedure: Monoclonal antibodies MAb 4155 were expressed from the 4155 monoclonal cell line. The 4155 monoclonal cell line was prepared and screened according to the methods described by Gani et al., (3 Steroid Biochem. Molec. Biol. 48, 277-282 (1994)).
Peptides were synthesised in duplicate or triplicate from the C-terminus by solid phase peptide synthesis on the heads of polyethylene pins (Geysen et al., Strategies for epitope analysis using peptide synthesis. J. Immunol. Methods 102, 259-274 (1987)) using a Multipin Peptide Synthesis Kit (Chiron Mimotopes, Victoria, Australia). Pins were arranged in a plastic holder in the format of a 96-well microtitre plate.
All incubation steps were performed at room temperature (18-25° C.) by lowering the pins reagents dispensed into 96-well microtitre plates (Becton Dickinson, Calif., USA). Washing was accomplished by placing the block of pins in a bath of phosphate buffered saline (PBS) containing Tween 20™ (0.01% v/v) with agitation for four cycles of 5 min. Non-specific binding sites on the surface of the pins were blocked by incubating in PBS containing casein (1% w/v, 175 μl/well) for 1 h. MAb4155 was diluted in blocking buffer and the pins were incubated in the antibody solution (150 μl/well) for 18 h at 4° C. After washing, the pins were incubated in horseradish peroxidase (HRP)-conjugated rabbit anti-mouse immunoglobulin (Dako, High Wycombe, UK, 1/1000 in blocking buffer for 1 h at 150 μl/well). The pins were washed once more and then incubated in ABTS [2,2′-azino-bis (3ethylbenzothiazoline-6-sulphonic acid)] working substrate for 15 min (150 μl/well). ABTS was prepared as a 0.033% (w/v) solution in 0.1M citrate phosphate buffer (pH 4.5) with 33% hydrogen peroxide (1 μl/ml). Colour development was terminated by removal of the pins from the wells and was measured spectrophotometrically at 405 nm using a Milenia Kinetic Analyser™ (DPC, Llanberis, Wales).
In order to identify core binding regions, a set of peptides was synthesised on the heads of pins based on SEQ ID NO:2. […] In addition, a set of peptides was synthesised in which each residue of the lead sequence was replaced by Ala (or Gly if Ala already existed at that position) in order to assess the contribution of each residue to the binding event.
Additional core binding sequences were identified utilizing the amino acid sequence SEQ ID NO:8 and investigating the effect of systematic replacement of each residue by the other 19 naturally occurring amino acids using known techniques as exemplified in Verhoeyen et al., Construction of a reshaped HMFG1 antibody and comparison of its fine specificity with that of the parent mouse antibody. Immunology, 78, 364-370 (1993).

[2] = tested on: MAb4155 (anti-estrone-3-glucuronide monoclonal antibody); assay: as above; design: species or system mouse; conditions: D-isomer reverse sequence versus L-isomer parent
[3] = Table 1, peptides on pins based on SEQ ID NO:2 (truncations, Ala/Gly replacement)
[4] = Table 2, replacement analogues of SEQ ID NO:8, setting SEQ ID NO:8 to a Relative Binding of 100

Relative Binding of MAb4155 to peptides as measured by ELISA [1, 3] | Relative Binding of MAb4155 to peptides as measured by ELISA [1, 4] | Substance | further results
1.5 | – | AAARGLFED [SEQ ID NO:14] | –
2.0 | – | AAEAGLFED [SEQ ID NO:15] | –
1.5 | – | AAERALFED [SEQ ID NO:16] | –
1.6 | – | AAERGAFED [SEQ ID NO:17] | –
1.0 | – | AAERGL [SEQ ID NO:73] | –
0.8 | – | AAERGLAED [SEQ ID NO:78] | –
1.0 | – | AAERGLF [SEQ ID NO:72] | –
1.8 | – | AAERGLFAD [SEQ ID NO:79] | –
1.0 | – | AAERGLFE [SEQ ID NO:71] | –
1.1 | – | AAERGLFEA [SEQ ID NO:80] | –
2.0 | – | AAERGLFED [SEQ ID NO:2] | –
1.5 | – | AERGLFED [SEQ ID NO:11] | –
2.0 | – | AGERGLFED [SEQ ID NO:13] | –
0.9 | – | Ala-Ala-Glu (AAE) [SEQ ID NO:76] | –
0.8 | – | Ala-Ala-Glu-Arg (AAER) [SEQ ID NO:75] | –
1.0 | – | Ala-Ala-Glu-Arg-Gly (AAERG) [SEQ ID NO:74] | –
– | – | Asp-Tyr-Phe-Leu-Gly (DYFLG) [SEQ ID NO:37] | Binding affinity relative to the parent sequence (SEQ ID NO:28) [2]: equivalent
1.8 | – | ERGLFED [SEQ ID NO:10] | –
1.9 | – | GAERGLFED [SEQ ID NO:12] | –
– | 121 | Gly-Leu-Phe-Asp-Asp (GLFDD) [SEQ ID NO:23] | –
– | 335 | Gly-Leu-Phe-Cys-Asp (GLFCD) [SEQ ID NO:22] | –

Relative Binding of MAb4155 to peptides as measured by ELISA [1, 3] | Relative Binding of MAb4155 to peptides as measured by ELISA [1, 4] | Substance | further results
2.2 | 100 | Gly-Leu-Phe-Glu-Asp (GLFED) [SEQ ID NO:8] | –
– | 296 | Gly-Leu-Phe-Glu-Cys (GLFEC) [SEQ ID NO:29] | –
– | 174 | Gly-Leu-Phe-Glu-Ile (GLFEI) [SEQ ID NO:31] | –
– | 168 | Gly-Leu-Phe-Glu-Leu (GLFEL) [SEQ ID NO:32] | –
– | 204 | Gly-Leu-Phe-Glu-Phe (GLFEF) [SEQ ID NO:30] | –
– | 594 | Gly-Leu-Phe-Glu-Trp (GLFEW) [SEQ ID NO:34] | –
– | 386 | Gly-Leu-Phe-Glu-Tyr (GLFEY) [SEQ ID NO:35] | –
– | 177 | Gly-Leu-Phe-Glu-Val (GLFEV) [SEQ ID NO:33] | –
– | 169 | Gly-Leu-Phe-Ile-Asp (GLFID) [SEQ ID NO:25] | –
– | 138 | Gly-Leu-Phe-Leu-Asp (GLFLD) [SEQ ID NO:26] | –
– | 184 | Gly-Leu-Phe-Phe-Asp (GLFFD) [SEQ ID NO:24] | –
– | 578 | Gly-Leu-Phe-Trp-Asp (GLFWD) [SEQ ID NO:27] | –
– | 252 | Gly-Leu-Phe-Tyr-Asp (GLFYD) [SEQ ID NO:28] | –
– | 207 | Gly-Leu-Trp-Glu-Asp (GLWED) [SEQ ID NO:21] | –
– | 200 | Gly-Phe-Phe-Glu-Asp (GFFED) [SEQ ID NO:18] | –
– | 343 | Gly-Trp-Phe-Glu-Asp (GWFED) [SEQ ID NO:19] | –
– | 220 | Gly-Tyr-Phe-Glu-Asp (GYFED) [SEQ ID NO:20] | –
1.9 | – | Leu-Phe-Glu-Asp (LFED) [SEQ ID NO:7] | –
2.0 | – | Phe-Glu-Asp (FED) [SEQ ID NO:6] | –
1.6 | – | RGLFED [SEQ ID NO:9] | –
